Patent publication US5342839A, “2-hydroxy-3-phenoxy-propyl-substituted piperazines, their preparation and use” (BASF Aktiengesellschaft, priority 1988, dated 1994)

How the values were obtained:
[1] = Protection from acute cerebral hypoxia (survival time of mice in 3.5 parts O2/96.5 parts N2); type: in vivo; settings: female mice, i.p., hypoxia 3.5 parts oxygen/96.5 parts nitrogen; for ED50: Mus musculus, ip, read-out: Test 1 ED 50% (dose which increases survival time of the animals by 50%), hypoxia
Description: 1. Protection from acute cerebral hypoxia
Female mice (weight 22-28 g) were placed in a glass tube (diameter 6 cm) through which was passed a mixture of 3.5 parts of oxygen and 96.5 parts of nitrogen. Untreated control animals survived 138 sec. on average in a glass tube of this type. The dose of active substances which, after intraperitoneal administration thereof, increases the survival time of the animals by 50% was determined.

calcium channel = target: T1, calcium channel (Cavia porcellus, UniProt A0A286X7I0); test: Affinity to the calcium channel: inhibition of specific (S)-3H-devapamil binding to guinea-pig skeletal muscle membranes; settings: 1 nM (S)-3H-devapamil, pH 7.4, 20° C., 60 minutes, read-out: Test 3 Ki
T1 construct: guinea-pig skeletal muscle membranes; from tissue; host or cells: guinea-pig skeletal muscle membranes
Description: 3. Affinity of the test substances to the calcium channel.
The affinity of the test substances to the calcium channel was determined by inhibition of the specific (S)-^3 H-devapamil binding to guinea-pig skeletal muscle membranes (FEBS Lett. 176, 371 (1984)). For this, the membranes were incubated with a fixed concentration of 1 nM (S)-^3 H-devapamil and increasing concentrations of test substance in 50 mM tris-HCl/0.1 mM phenylmethylsulfonyl fluoride, (pH 7.4) at 20° C. for 60 minutes. The non-specific binding was determined using 10^-6 M (S)-devapamil. The mixtures were then filtered through glass fiber filters, and the amount of (S)-^3 H-devapamil retained on the filter was determined by liquid scintillation measurement. The Ki values were determined by non-linear regression analysis.

[2] = Protection from global cerebral ischemia (survival time of mice after MgCl2); type: in vivo; settings: female mice, i.p., before 0.1 ml of 80% strength MgCl2.6H2O solution; for ED50: Mus musculus, ip, read-out: Test 2 ED 50% (dose which increases survival time of the animals by 50%), global ischemia
Description: 2. Protection from global cerebral ischemia
Female mice (weight 24-27 g) received the active substance intraperitoneally before administration of 0.1 ml of an 80% strength solution (g/l) of MgCl2.6H2 O. Untreated control animals survive 24 sec. on average after administration of MgCl2. The dose of active substances which increases the survival time of the animals by 50% compared with placebo-treated animals was determined.

T1 sequence (A0A286X7I0 1-1867): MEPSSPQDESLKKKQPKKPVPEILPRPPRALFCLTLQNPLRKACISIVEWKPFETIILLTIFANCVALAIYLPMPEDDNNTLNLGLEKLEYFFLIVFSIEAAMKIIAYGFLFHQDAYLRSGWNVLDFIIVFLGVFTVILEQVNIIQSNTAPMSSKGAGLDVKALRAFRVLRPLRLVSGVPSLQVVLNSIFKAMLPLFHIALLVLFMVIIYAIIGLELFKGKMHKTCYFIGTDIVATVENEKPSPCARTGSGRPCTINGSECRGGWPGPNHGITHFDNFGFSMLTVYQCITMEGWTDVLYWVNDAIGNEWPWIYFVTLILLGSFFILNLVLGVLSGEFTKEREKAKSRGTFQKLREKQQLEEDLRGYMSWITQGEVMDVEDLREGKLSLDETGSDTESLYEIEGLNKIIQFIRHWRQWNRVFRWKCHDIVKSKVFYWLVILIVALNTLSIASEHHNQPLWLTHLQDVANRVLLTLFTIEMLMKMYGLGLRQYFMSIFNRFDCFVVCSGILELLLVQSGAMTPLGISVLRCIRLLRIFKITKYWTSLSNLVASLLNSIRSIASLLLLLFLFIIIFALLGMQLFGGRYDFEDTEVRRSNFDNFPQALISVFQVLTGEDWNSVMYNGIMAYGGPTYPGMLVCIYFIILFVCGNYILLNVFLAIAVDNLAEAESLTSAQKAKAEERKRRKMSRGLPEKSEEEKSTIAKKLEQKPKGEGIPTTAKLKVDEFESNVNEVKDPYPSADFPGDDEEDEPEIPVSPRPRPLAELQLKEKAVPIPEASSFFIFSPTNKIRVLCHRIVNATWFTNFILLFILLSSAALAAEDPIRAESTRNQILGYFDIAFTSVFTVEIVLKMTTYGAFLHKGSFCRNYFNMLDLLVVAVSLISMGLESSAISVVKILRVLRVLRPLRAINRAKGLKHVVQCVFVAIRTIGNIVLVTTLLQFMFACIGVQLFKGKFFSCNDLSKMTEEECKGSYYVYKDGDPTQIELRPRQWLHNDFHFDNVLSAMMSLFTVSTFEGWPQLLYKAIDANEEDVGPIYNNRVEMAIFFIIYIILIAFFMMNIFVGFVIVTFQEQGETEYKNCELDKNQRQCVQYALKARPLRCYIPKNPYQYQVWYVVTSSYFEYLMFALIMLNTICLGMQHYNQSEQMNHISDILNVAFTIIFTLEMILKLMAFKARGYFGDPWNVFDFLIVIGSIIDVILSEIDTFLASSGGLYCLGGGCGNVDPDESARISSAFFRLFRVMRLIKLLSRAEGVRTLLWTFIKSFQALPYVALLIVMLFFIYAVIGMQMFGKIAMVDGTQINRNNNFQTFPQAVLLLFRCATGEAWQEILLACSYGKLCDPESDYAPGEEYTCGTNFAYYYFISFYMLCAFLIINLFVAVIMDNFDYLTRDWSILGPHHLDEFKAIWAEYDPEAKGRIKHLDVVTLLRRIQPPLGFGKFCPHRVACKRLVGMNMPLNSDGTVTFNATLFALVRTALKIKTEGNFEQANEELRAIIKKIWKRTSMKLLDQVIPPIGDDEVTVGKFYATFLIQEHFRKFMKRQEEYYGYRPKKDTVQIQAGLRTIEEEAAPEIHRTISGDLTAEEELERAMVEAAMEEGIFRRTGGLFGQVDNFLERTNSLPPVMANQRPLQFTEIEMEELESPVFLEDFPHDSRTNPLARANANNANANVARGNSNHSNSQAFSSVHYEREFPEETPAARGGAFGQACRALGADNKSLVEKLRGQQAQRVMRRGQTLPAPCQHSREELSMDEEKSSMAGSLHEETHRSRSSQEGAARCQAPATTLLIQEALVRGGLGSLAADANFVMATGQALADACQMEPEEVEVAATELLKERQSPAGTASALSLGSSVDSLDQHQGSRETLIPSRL

## OC(COc1ccc(Cl)c(Cl)c1)CN1CCN(CCCC(c2ccc(F)cc2)c2ccc(F)cc2)CC1 (centres unmarked) [Example 12, 1-[4,4-bis(4-fluorophenyl)butyl]-4-[2-hydroxy-3-(3,4-dichlorophenoxy)propyl]piperazine]
[1]
  ED50: 4.7 mg/kg
Calcium channel
  Ki: 16 nM
[2]
  ED50: 45 mg/kg

## OC(COc1ccc(F)cc1)CN1CCN(CCCC(c2ccc(F)cc2)c2ccc(F)cc2)CC1 (centres unmarked) [Example 2, 1-[4,4-bis(4-fluorophenyl)butyl]-4-[2-hydroxy-3(4-fluorophenoxy)propyl]piperazine]
[1]
  ED50: 11 mg/kg
Calcium channel
  Ki: 9.1 nM
[2]
  ED50: 20 mg/kg

## Cc1cccc(C)c1NC(=O)CN1CCN(CCCC(c2ccc(F)cc2)c2ccc(F)cc2)CC1 [lidoflazine, reference compound]
[1]
  ED50: 10 mg/kg
Calcium channel
  Ki: 20 nM
[2]
  ED50: > 46 mg/kg

## OC(COc1ccc(F)cc1)CN1CCN(CCCC(c2ccccc2)c2ccccc2)CC1 (centres unmarked) [Example 22, 1-[4,4-diphenylbutyl]-4-[2-hydroxy-3-(4-fluorophenoxy)propyl]piperazine]
[1]
  ED50: 6 mg/kg
Calcium channel
  Ki: 15 nM
[2]
  ED50: 8.8 mg/kg

## O=[N+]([O-])c1ccc(OCC(O)CN2CCN(CCCC(c3ccc(F)cc3)c3ccc(F)cc3)CC2)cc1 (centres unmarked) [Example 16, 1-[4,4-bis(4-fluorophenyl)butyl]-4-[2-hydroxy-3-(4-nitrophenoxy)propyl]piperazine]
[1]
  ED50: 5.5 mg/kg
Calcium channel
  Ki: 11 nM
[2]
  ED50: 38 mg/kg

## OC(COc1ccccc1)CN1CCN(CCC(c2ccccc2)c2ccccc2)CC1 (centres unmarked) [Example 7, 1-[3,3-diphenylpropyl]-4-[2-hydroxy-3-phenoxypropyl]piperazine]
[1]
  ED50: 4.6 mg/kg
Calcium channel
  Ki: 280 nM
[2]
  ED50: 10 mg/kg

## OC(COc1cccc(C(F)(F)F)c1)CN1CCN(CCCC(c2ccc(F)cc2)c2ccc(F)cc2)CC1 (centres unmarked) [Example 11, 1-[4,4-bis(4-fluorophenyl)butyl]-4-[2-hydroxy-3(3-trifluoromethylphenoxy)propyl]piperazine]
[1]
  ED50: 4.9 mg/kg
Calcium channel
  Ki: 8 nM
[2]
  ED50: 46 mg/kg

## OC(COc1ccc(F)cc1)CN1CCN(CCCC(c2cccc(F)c2)c2cccc(F)c2)CC1 (centres unmarked) [Example 27, 1-[4,4-bis(3-fluorophenyl)butyl]-4-[2-hydroxy-3-(4-fluorophenoxy)propyl]piperazine]
[1]
  ED50: 14 mg/kg
Calcium channel
  Ki: 22 nM
[2]
  ED50: 29 mg/kg

## Fc1ccc(C(c2ccc(F)cc2)N2CCN(C/C=C/c3ccccc3)CC2)cc1 [flunarizine, reference compound]
[1]
  ED50: > 100 mg/kg
[2]
  ED50: 26.5 mg/kg

## OC(COc1ccc(Cl)cc1)CN1CCN(CC(c2ccccc2)c2ccccc2)CC1 (centres unmarked) [Example 9, 1-[2,2-diphenylethyl]-4-[2-hydroxy-3-(4-chlorophenoxy)propyl]piperazine]
[1]
  ED50: 7.3 mg/kg
Calcium channel
  Ki: 30 nM
[2]
  ED50: 12 mg/kg

## OC(COc1ccccc1)CN1CCN(CCCC(c2ccccc2)c2ccccc2)CC1 (centres unmarked) [Example 4, 1-[4,4-diphenylbutyl]-4-[2-hydroxy-3-phenoxypropyl]-piperazine]
[1]
  ED50: 6.6 mg/kg
Calcium channel
  Ki: 18 nM
[2]
  ED50: 8.6 mg/kg

## OC(COc1ccc(F)cc1)CN1CCN(CCCC(c2ccc(F)cc2)c2ccc(F)cc2)CC1 (single isomer, unassigned; (-)) [Example 29, (-)-1[4,4-bis(4-fluorophenyl)butyl]-4-[2-hydroxy-3(4-fluorophenoxy)propyl]piperazine]
[1]
  Test 1 ED 50% (dose which increases survival time of the animals by 50%), hypoxia: 1.6 mg/kg
Calcium channel
  Ki: 9 nM
[2]
  Test 2 ED 50% (dose which increases survival time of the animals by 50%), global ischemia: 13 mg/kg

## OC(CSc1ccccc1)CN1CCN(CCC(c2ccccc2)c2ccccc2)CC1 (centres unmarked) [Example 35]
[1]
  ED50: 8.7 mg/kg
Calcium channel
  Ki: 159 nM
[2]
  ED50: 14 mg/kg

## OC(COc1ccc(F)cc1)CN1CCN(CCC(c2ccccc2)c2ccccc2)CC1 (single isomer, unassigned; (-)) [Example 31]
[1]
  ED50: 4.1 mg/kg
Calcium channel
  Ki: 149 nM
[2]
  ED50: 9.3 mg/kg

## OC(COc1ccc(Cl)cc1)CN1CCN(CCCC(c2ccc(F)cc2)c2ccc(F)cc2)CC1 (centres unmarked) [Example 1, 1-[4,4-bis(4-Fluorophenyl)butyl]-4-[2-hydroxy-3(4-chlorophenoxy)propyl]piperazine]
[1]
  ED50: 11 mg/kg
Calcium channel
  Ki: 8 nM
[2]
  ED50: 27 mg/kg

## OC(COc1ccc(F)cc1)CN1CCN(CCCC(c2ccc(F)cc2)c2ccc(F)cc2)CC1 (single isomer, unassigned; (+)) [Example 30, (+)-1[4,4-bis(4-fluorophenyl)butyl]-4-[2-hydroxy-3(4-fluorophenoxy)propyl]piperazine]
[1]
  Test 1 ED 50% (dose which increases survival time of the animals by 50%), hypoxia: 4.0 mg/kg
Calcium channel
  Ki: 10 nM
[2]
  ED50: 17 mg/kg

## OC(COc1ccc(F)cc1)CN1CCCN(CCCC(c2ccc(F)cc2)c2ccc(F)cc2)CC1 (centres unmarked) [Example 33, 1-[4,4-bis(4-fluorophenyl)butyl]-4-(2-hydroxy-3(4-fluorophenoxy)propyl]homopiperazine]
[1]
  ED50: 4.8 mg/kg
Calcium channel
  Ki: 13 nM
[2]
  ED50: 31 mg/kg

## OC(COc1ccc(Cl)c(Cl)c1)CN1CCN(CCCC(c2ccccc2)c2ccccc2)CC1 (centres unmarked) [Example 23, 1-[4,4-diphenylbutyl]-4-[2-hydroxy-3-(3,4-dichlorophenoxy)propyl]piperazine]
[1]
  ED50: 8.6 mg/kg
Calcium channel
  Ki: 22 nM
[2]
  ED50: 41 mg/kg

## Cc1ccc(C(CCCN2CCN(CC(O)COc3ccc(F)cc3)CC2)c2ccc(C)cc2)cc1 (centres unmarked) [Example 24, 1-[4,4-bis(4-methylphenyl)butyl]-4-[2-hydroxy-3-(4-fluorophenoxy)propyl]piperazine]
[1]
  ED50: 23 mg/kg
Calcium channel
  Ki: 12 nM
[2]
  ED50: 40 mg/kg

## OC(COc1ccccc1Cl)CN1CCN(CCCC(c2ccc(F)cc2)c2ccc(F)cc2)CC1 (centres unmarked) [Example 13, 1-[4,4-bis(4-fluorophenyl)butyl]-4-[2-hydroxy-3-(c-chlorophenoxy)propyl]piperazine]
[1]
  Test 1 ED 50% (dose which increases survival time of the animals by 50%), hypoxia: 6.9 mg/kg
Calcium channel
  Ki: 10 nM
[2]
  Test 2 ED 50% (dose which increases survival time of the animals by 50%), global ischemia: 39 mg/kg

## OC(COc1ccc(F)cc1)CN1CCN(CCC(c2ccccc2)c2ccccc2)CC1 (single isomer, unassigned; (+)) [Example 32]
[1]
  Test 1 ED 50% (dose which increases survival time of the animals by 50%), hypoxia: 4.2 mg/kg
Calcium channel
  Ki: 249 nM
[2]
  Test 2 ED 50% (dose which increases survival time of the animals by 50%), global ischemia: 9.5 mg/kg

## OC(CSc1ccc(F)cc1)CN1CCN(CCCC(c2ccc(F)cc2)c2ccc(F)cc2)CC1 (centres unmarked) [Example 34, 1-[4,4-bis(4-fluorophenyl)butyl]-4-[2-hydroxy-3-(4-fluoro-thiophenoxy)propyl]piperazine]
[1]
  ED50: 9 mg/kg
Calcium channel
  Ki: 9 nM
[2]
  ED50: 28 mg/kg

## OC(COc1ccccc1)CN1CCN(CCCC(c2ccc(F)cc2)c2ccc(F)cc2)CC1 (centres unmarked) [Example 3, 1-[4,4-bis(4-fluorophenyl)butyl]-4-[2-hydroxy-3-phenoxypropyl]piperazine]
[1]
  ED50: 10 mg/kg
Calcium channel
  Ki: 8 nM
[2]
  ED50: 13 mg/kg

## N#Cc1ccccc1OCC(O)CN1CCN(CCCC(c2ccc(F)cc2)c2ccc(F)cc2)CC1 (centres unmarked) [Example 17, 1-[4,4-bis(4-fluorophenyl)butyl]-4-[2-hydroxy-3-(2-cyanophenoxy)propyl]piperazine]
[1]
  ED50: 16 mg/kg
Calcium channel
  Ki: 10 nM
[2]
  ED50: 27 mg/kg

## OC(COc1ccc(Cl)cc1)CN1CCN(CCC(c2ccccc2)c2ccccc2)CC1 (centres unmarked) [Example 8, 1-[3,3-diphenylpropyl]-4-[2-hydroxy-3(4-chlorophenoxy)propyl]piperazine]
[1]
  ED50: 5 mg/kg
Calcium channel
  Ki: 160 nM
[2]
  ED50: 13 mg/kg
